# Results from PubChem BioAssay (NCI).
# Several values for one entry are separate records, joined by “and”; a condition that tells them apart may be missing. Identical values can stand only once.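 1) Cells in 96-well plates. 2) Compound, 48 h, 5 concentrations. 3) Linear interpolation between surrounding doses. 4) Unreached endpoint = highest concentration. GI50 = concentration required for 50% inhibition of growth. TGI is the concentration that stops growth completely.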
# Legend:
# Assay in all cases: growth of human tumour cells (NCI), 48 h
# KM12 colon = test system: KM12 colon
# SK-MEL-5 melanoma = test system: SK-MEL-5 melanoma
# M14 melanoma = test system: M14 melanoma
# UO-31 renal = test system: UO-31 renal
# OVCAR-8 ovarian = test system: OVCAR-8 ovarian
# MALME-3M melanoma = test system: MALME-3M melanoma
# HOP-62 NSCLC = test system: HOP-62 NSCLC
# LOX IMVI melanoma = test system: LOX IMVI melanoma
# ACHN renal = test system: ACHN renal
# OVCAR-3 ovarian = test system: OVCAR-3 ovarian
Structure (SMILES),GI50 (KM12 colon),TGI (KM12 colon),GI50 (SK-MEL-5 melanoma),TGI (SK-MEL-5 melanoma),GI50 (M14 melanoma),TGI (M14 melanoma),GI50 (UO-31 renal),TGI (UO-31 renal),GI50 (OVCAR-8 ovarian),TGI (OVCAR-8 ovarian),GI50 (MALME-3M melanoma),TGI (MALME-3M melanoma),GI50 (HOP-62 NSCLC),TGI (HOP-62 NSCLC),GI50 (LOX IMVI melanoma),TGI (LOX IMVI melanoma),GI50 (ACHN renal),TGI (ACHN renal),GI50 (OVCAR-3 ovarian),TGI (OVCAR-3 ovarian)
CC1(C)N=C(N)N=C(N)N1c1ccc(CCC(=O)Nc2cccc(S(=O)(=O)F)c2)cc1,10.6 µM,> 100 µM,4.83 µM,> 100 µM,6.69 µM,> 100 µM,13.2 µM,> 100 µM,6.46 µM,> 100 µM,21.3 µM,> 100 µM,6.56 µM,> 100 µM,3.54 µM,> 100 µM,52.5 µM,> 100 µM,54.1 µM,> 100 µM
NC(N)=NC(N)=NCc1ccco1,> 1250 µM,> 1250 µM,363 µM and 119 µM,> 1250 µM,> 1250 µM,> 1250 µM,> 1250 µM,> 1250 µM,896 µM,> 1250 µM,741 µM,> 1250 µM,780 µM,> 1250 µM,581 µM,> 1250 µM,> 1250 µM,> 1250 µM,847 µM,> 1250 µM
COc1ccc(-c2cc(=O)c3cccnc3[nH]2)cc1,–,> 100 µM,35 µM,> 100 µM,–,95.6 µM,–,> 100 µM,–,> 100 µM,–,> 100 µM,–,> 100 µM,–,> 100 µM,–,> 100 µM,29.9 µM,> 100 µM
